Test results: patent US20250129070A1, “BIFUNCTIONAL ANDROGEN RECEPTOR COMPOUNDS” (priority 2023, published 2025)

Tests used:
VCaP cells = test: VCaP growth inhibition assay; format: cell-based; conditions: 30 pM R1881, 9 days, CTG
Procedure, shortened: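 Growth read by CTG luminescence after 9-day exposure to compound (final 100 nM–10 fM, 1:5 steps) plus 30 pM R1881, in phenol red-free DMEM with 5% CSS. Cells pre-incubated 72 h before dosing; IC50 by nonlinear 4-parameter regression.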

AR / CBP ternary complex = test: Ternary complex formation assay (sandwich ELISA, AR capture / CBP detection) in VCaP cell lysates; format: cell-based; conditions: 1.5 hours treatment, sandwich ELISA (AR capture, CBP or p300 detection)
Procedure, shortened: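 Anti-AR (AR 441)-coated plates capture AR from lysates of VCaP cells grown ≥3 days at 50K/well in 5% charcoal-stripped FBS, dosed with bifunctional for 1.5 h and lysed 30 min at 4 °C. Co-captured CBP/p300 is probed with rabbit mAb and HRP anti-rabbit, then QuantaRed fluorescence (570/585) is read at 0, 5 and 15 min.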

Row | Compound | IC50 (VCaP cells) | EC50 (AR / CBP ternary complex)
1 | C[C@@H]1CC(=O)Nc2cccc(-c3ccc4c(c3)c(-c3cnn(C)c3)nn4CC3CCN(c4ncc(C(=O)NC5C(C)(C)C(Oc6ccc(C#N)c(Cl)c6)C5(C)C)cn4)CC3)c2N1 (stereo partly drawn) [Compound 58, N-[3-(3-chloro-4-cyano-phenoxy)-2,2,4,4-tetramethyl-cyclobutyl]-2-[4-[[5-[(4R)-4-methyl-2-oxo-1,3,4,5-tetrahydro-1,5-benzodiazepin-6-yl]-3-(1-methylpyrazol-4-yl)indazol-1-yl]methyl]-1-piperidyl]pyrimidine-5-carboxamide] | > 100 nM | > 100 nM
2 | CC(=O)N1CCc2c(c(-c3cccc4cc(-c5cnn(CC6CC7(C6)CN(c6ncc(C(=O)NC8C(C)(C)C(Oc9ccc(C#N)c(Cl)c9)C8(C)C)cn6)C7)c5)ncc34)nn2C2CCOCC2)C1 (stereo not drawn) [Compound 223, 2-[6-[[4-[8-(5-acetyl-1-tetrahydropyran-4-yl-6,7-dihydro-4H-pyrazolo[4,3-c]pyridin-3-yl)-3-isoquinolyl]pyrazol-1-yl]methyl]-2-azaspiro[3.3]heptan-2-yl]-N-[3-(3-chloro-4-cyano-phenoxy)-2,2,4,4-tetramethyl-cyclobutyl]pyrimidine-5-carboxamide] | ≤ 0.1 nM | < 1 nM
3 | CC(=O)N1CCc2c(c(-c3cccc4cc(-c5cnn(CCC6CCN(c7ncc(C(=O)NC8C(C)(C)C(Oc9ccc(C#N)c(Cl)c9)C8(C)C)cn7)CC6)c5)ncc34)nn2C2CCOCC2)C1 (stereo not drawn) [Compound 139, 2-[4-[2-[4-[8-(5-acetyl-1-tetrahydropyran-4-yl-6,7-dihydro-4H-pyrazolo[4,3-c]pyridin-3-yl)-3-isoquinolyl]pyrazol-1-yl]ethyl]-1-piperidyl]-N-[3-(3-chloro-4-cyano-phenoxy)-2,2,4,4-tetramethyl-cyclobutyl]pyrimidine-5-carboxamide] | ≤ 0.1 nM | > 100 nM
4 | COc1cc(OC2C(C)(C)C(NC(=O)c3ccc(N4CCN(C5CN(c6ccc(-c7cc8cccc(-c9nn(C%10CCOCC%10)c%10c9CN(C(C)=O)CC%10)c8cn7)cn6)C5)CC4)cc3)C2(C)C)ccc1C#N (stereo not drawn) [Compound 322, 4-[4-[1-[5-[8-(5-acetyl-1-tetrahydropyran-4-yl-6,7-dihydro-4H-pyrazolo[4,3-c]pyridin-3-yl)-3-isoquinolyl]-2-pyridyl]azetidin-3-yl]piperazin-1-yl]-N-[3-(4-cyano-3-methoxy-phenoxy)-2,2,4,4-tetramethyl-cyclobutyl]benzamide] | ≤ 0.1 nM | < 1 nM
5 | COc1cc(OC2C(C)(C)C(NC(=O)c3ccc(N4CCC5(CC4)CC4(CC(n6nc(N7CCCc8cc(-c9cnn(C)c9)c(C(F)F)cc87)c7c6CCN(C(C)=O)C7)C4)C5)cc3)C2(C)C)ccc1C#N (stereo not drawn) [Compound 286, 4-[2-[5-acetyl-3-[7-(difluoromethyl)-6-(1-methylpyrazol-4-yl)-3,4-dihydro-2H-quinolin-1-yl]-6,7-dihydro-4H-pyrazolo[4,3-c]pyridin-1-yl]-9-azadispiro[3.1.5^6.1^4]dodecan-9-yl]-N-[3-(4-cyano-3-methoxy-phenoxy)-2,2,4,4-tetramethyl-cyclobutyl]benzamide] | 1 to 100 nM | > 100 nM
6 | COc1cc(OC2C(C)(C)C(NC(=O)c3ccc(N4CCC(C5CCC(n6cc(-c7cc8cccc(-c9nn(C%10CCOCC%10)c%10c9CN(C(C)=O)CC%10)c8cn7)cn6)CC5)CC4)cc3)C2(C)C)ccc1C#N (stereo not drawn) [Compound 271, 4-[4-[4-[4-[8-(5-acetyl-1-tetrahydropyran-4-yl-6,7-dihydro-4H-pyrazolo[4,3-c]pyridin-3-yl)-3-isoquinolyl]pyrazol-1-yl]cyclohexyl]-1-piperidyl]-N-[3-(4-cyano-3-methoxy-phenoxy)-2,2,4,4-tetramethylcyclobutyl]benzamide] | 0.1 to 1 nM | < 1 nM
7 | Cn1c(=O)sc2ccc(-c3cccc4cc(-c5ccc(CCC6CCN(c7ncc(C(=O)NC8C(C)(C)C(Oc9ccc(C#N)c(Cl)c9)C8(C)C)cn7)CC6)nc5)ncc34)cc21 (stereo not drawn) [Compound 235, N-[3-(3-chloro-4-cyano-phenoxy)-2,2,4,4-tetramethyl-cyclobutyl]-2-[4-[2-[5-[8-(3-methyl-2-oxo-1,3-benzothiazol-5-yl)-3-isoquinolyl]-2-pyridyl]ethyl]-1-piperidyl]pyrimidine-5-carboxamide] | > 100 nM | < 1 nM
8 | CC(=O)N1CCc2c(c(-c3cccc4cc(-c5ccc(C(=O)NCCOCc6ncc(C(=O)NC7C(C)(C)C(Oc8ccc(C#N)c(Cl)c8)C7(C)C)cn6)nc5)ncc34)nn2C2CCOCC2)C1 (stereo not drawn) [Compound 76, 2-[2-[[5-[8-(5-acetyl-1-tetrahydropyran-4-yl-6,7-dihydro-4H-pyrazolo[4,3-c]pyridin-3-yl)-3-isoquinolyl]pyridine-2-carbonyl]amino]ethoxymethyl]-N-[3-(3-chloro-4-cyano-phenoxy)-2,2,4,4-tetramethyl-cyclobutyl]pyrimidine-5-carboxamide] | ≤ 0.1 nM | < 1 nM

Continued, values first:

Row | IC50 (VCaP cells) | EC50 (AR / CBP ternary complex) | Compound
9 | 0.1 to 1 nM | < 1 nM | CC(=O)N1CCc2c(c(N3CCCc4cc(-c5cnn(C)c5)c(C)cc43)nn2C2CCN(CC3CCN(c4ncc(C(=O)NC5C(C)(C)C(Oc6ccc(C#N)c(C)c6C)C5(C)C)cn4)CC3(C)C)CC2)C1 (stereo not drawn) [Compound 465, 2-[4-[[4-[5-acetyl-3-[7-methyl-6-(1-methylpyrazol-4-yl)-3,4-dihydro-2H-quinolin-1-yl]-6,7-dihydro-4H-pyrazolo[4,3-c]pyridin-1-yl]-1-piperidyl]methyl]-3,3-dimethyl-1-piperidyl]-N-[3-(4-cyano-2,3-dimethyl-phenoxy)-2,2,4,4-tetramethyl-cyclobutyl]pyrimidine-5-carboxamide]
10 | 1 to 100 nM | 10 to 100 nM | CC(=O)N1CCc2c(c(N3CCCc4cc(-c5cnn(C)c5)c(C(F)F)cc43)nn2C2CCN(Cc3ncc(C(=O)NC4C(C)(C)C(Oc5ccc(C#N)c(Cl)c5)C4(C)C)cn3)CC2)C1 (stereo not drawn) [Compound 94, 2-[[4-[5-acetyl-3-[7-(difluoromethyl)-6-(1-methylpyrazol-4-yl)-3,4-dihydro-2H-quinolin-1-yl]-6,7-dihydro-4H-pyrazolo[4,3-c]pyridin-1-yl]-1-piperidyl]methyl]-N-[3-(3-chloro-4-cyano-phenoxy)-2,2,4,4-tetramethyl-cyclobutyl]pyrimidine-5-carboxamide]
11 | 0.1 to 1 nM | < 1 nM | CC(=O)N1CCc2c(c(N3CCCc4cc(-c5cnn(C)c5)c(C(F)F)cc43)nn2C2CCN(CC#Cc3ncc(C(=O)NC4C(C)(C)C(Oc5ccc(C#N)c(Cl)c5)C4(C)C)cn3)CC2)C1 (stereo not drawn) [Compound 19, 2-[3-[4-[5-acetyl-3-[7-(difluoromethyl)-6-(1-methylpyrazol-4-yl)-3,4-dihydro-2H-quinolin-1-yl]-6,7-dihydro-4H-pyrazolo[4,3-c]pyridin-1-yl]-1-piperidyl]prop-1-ynyl]-N-[3-(3-chloro-4-cyano-phenoxy)-2,2,4,4-tetramethyl-cyclobutyl]pyrimidine-5-carboxamide]
12 | 0.1 to 1 nM | < 1 nM | CC(=O)N1CCc2c(c(N3CCCc4cc(-c5cnn(C)c5)c(C(F)F)cc43)nn2C2CCN(CCOC3CCN(c4ncc(C(=O)NC5C(C)(C)C(Oc6ccc(C#N)c(Cl)c6)C5(C)C)cn4)CC3)CC2)C1 (stereo not drawn) [Compound 170, 2-[4-[2-[4-[5-acetyl-3-[7-(difluoromethyl)-6-(1-methylpyrazol-4-yl)-3,4-dihydro-2H-quinolin-1-yl]-6,7-dihydro-4H-pyrazolo[4,3-c]pyridin-1-yl]-1-piperidyl]ethoxy]-1-piperidyl]-N-[3-(3-chloro-4-cyano-phenoxy)-2,2,4,4-tetramethyl-cyclobutyl]pyrimidine-5-carboxamide]
13 | 0.1 to 1 nM | < 1 nM | CC(=O)N1CCc2c(c(N3CCCc4cc(-c5cnn(C)c5)c(C)cc43)nn2C2CCN(C3CCC4(CC3)CN(c3ncc(C(=O)NC5C(C)(C)C(Oc6ccc(C#N)c(C)c6C)C5(C)C)cn3)C4)CC2)C1 (stereo not drawn) [Compound 472, 2-[7-[4-[5-acetyl-3-[7-methyl-6-(1-methylpyrazol-4-yl)-3,4-dihydro-2H-quinolin-1-yl]-6,7-dihydro-4H-pyrazolo[4,3-c]pyridin-1-yl]-1-piperidyl]-2-azaspiro[3.5]nonan-2-yl]-N-[3-(4-cyano-2,3-dimethyl-phenoxy)-2,2,4,4-tetramethyl-cyclobutyl]pyrimidine-5-carboxamide]
14 | ≤ 0.1 nM | < 1 nM | CC(=O)N1CCc2c(c(N3CCCc4cc(-c5cnn(C)c5)c(C(F)F)cc43)nn2C2CCN(C(C)COC3CCN(c4ncc(C(=O)NC5C(C)(C)C(Oc6ccc(C#N)c(Cl)c6)C5(C)C)cn4)CC3)CC2)C1 (stereo not drawn) [Compound 169, 2-[4-[2-[4-[5-acetyl-3-[7-(difluoromethyl)-6-(1-methylpyrazol-4-yl)-3,4-dihydro-2H-quinolin-1-yl]-6,7-dihydro-4H-pyrazolo[4,3-c]pyridin-1-yl]-1-piperidyl]propoxy]-1-piperidyl]-N-[3-(3-chloro-4-cyano-phenoxy)-2,2,4,4-tetramethyl-cyclobutyl]pyrimidine-5-carboxamide]
15 | ≤ 0.1 nM | < 1 nM | COc1cc(OC2C(C)(C)C(NC(=O)c3ccc(N4CCC(C)(N5CCC(n6nc(N7CCCc8cc(-c9cnn(C)c9)c(C(F)F)cc87)c7c6CCN(C(C)=O)C7)CC5)CC4)cc3)C2(C)C)ccc1C#N (stereo not drawn) [Compound 305, 4-[4-[4-[5-acetyl-3-[7-(difluoromethyl)-6-(1-methylpyrazol-4-yl)-3,4-dihydro-2H-quinolin-1-yl]-6,7-dihydro-4H-pyrazolo[4,3-c]pyridin-1-yl]-1-piperidyl]-4-methyl-1-piperidyl]-N-[3-(4-cyano-3-methoxy-phenoxy)-2,2,4,4-tetramethyl-cyclobutyl]benzamide]
